Assay results reported in patent publication US20250215029A1 (Recludix Pharma, Inc., priority 2022, published 2025).
pIC50: −log10 of the molar value.

What was measured:
[1] = biological target: T1, Recombinant STAT6 protein (STAT6 (W123-T658)) (Homo sapiens, UniProt P42226); experiment: STAT6 Fluorescence Polarization (FP) Assay; format: binding; settings: STAT6 (W123-T658) 250 nM, probe 5-FAM-Ap[…]-NH2 2 nM, 45-minute incubation; read-out: STAT6 (FP assay IC50 class)
T1 construct: Recombinant STAT6 protein (STAT6 (W123-T658))
T1 sequence (P42226 123-658): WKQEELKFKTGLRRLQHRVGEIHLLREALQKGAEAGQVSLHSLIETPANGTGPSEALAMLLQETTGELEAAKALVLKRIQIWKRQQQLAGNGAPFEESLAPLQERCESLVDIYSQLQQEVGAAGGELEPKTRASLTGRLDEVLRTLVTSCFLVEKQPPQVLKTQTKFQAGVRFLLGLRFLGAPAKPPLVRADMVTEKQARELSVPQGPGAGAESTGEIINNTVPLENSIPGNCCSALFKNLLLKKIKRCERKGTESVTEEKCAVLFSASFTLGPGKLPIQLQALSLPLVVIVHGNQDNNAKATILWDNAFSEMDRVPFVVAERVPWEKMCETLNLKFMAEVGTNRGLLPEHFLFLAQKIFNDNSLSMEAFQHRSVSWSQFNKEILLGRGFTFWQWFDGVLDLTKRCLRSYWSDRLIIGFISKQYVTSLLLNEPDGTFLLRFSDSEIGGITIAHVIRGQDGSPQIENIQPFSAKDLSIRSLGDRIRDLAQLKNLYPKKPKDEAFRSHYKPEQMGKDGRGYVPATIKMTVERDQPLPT
Outline: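 Recombinant STAT6 (W123-T658) at 250 nM mixed with 2 nM 5-FAM phosphotyrosine peptide probe in HEPES pH 7.4 buffer with DTT, 1% DMSO final, added to serially diluted compounds. FP (mP) read after 45 min at room temperature; IC50 by nonlinear regression vs log concentration.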

[2] = biological target: T2, Recombinant STAT3 protein (STAT3 (G127-I722)) (Homo sapiens, UniProt P40763); experiment: STAT3 Fluorescence Polarization (FP) Assay; format: binding; settings: STAT3 (G127-I722) 25 nM, probe 5-FAM-GpYLPQTV-NH2 2 nM, 45-minute incubation; read-out: STAT3 (FP assay IC50 class)
T2 construct: Recombinant STAT3 protein (STAT3 (G127-I722))
T2 sequence (P40763 127-722): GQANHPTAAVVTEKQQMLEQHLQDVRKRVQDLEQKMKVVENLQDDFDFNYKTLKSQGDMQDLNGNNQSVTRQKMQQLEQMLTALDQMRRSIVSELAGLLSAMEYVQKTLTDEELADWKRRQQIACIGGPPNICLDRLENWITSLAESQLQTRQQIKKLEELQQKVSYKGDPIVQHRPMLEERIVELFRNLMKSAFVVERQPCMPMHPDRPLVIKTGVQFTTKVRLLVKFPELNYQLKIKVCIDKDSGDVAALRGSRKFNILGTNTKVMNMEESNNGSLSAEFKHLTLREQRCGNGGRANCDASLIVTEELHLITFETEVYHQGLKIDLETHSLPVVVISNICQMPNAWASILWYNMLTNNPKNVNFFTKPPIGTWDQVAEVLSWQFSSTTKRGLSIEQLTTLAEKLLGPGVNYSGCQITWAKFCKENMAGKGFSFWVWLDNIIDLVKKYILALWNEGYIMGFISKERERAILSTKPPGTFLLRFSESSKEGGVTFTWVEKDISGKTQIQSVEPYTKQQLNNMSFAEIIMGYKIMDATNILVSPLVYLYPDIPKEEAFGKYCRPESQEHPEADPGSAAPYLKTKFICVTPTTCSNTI
Outline: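 Read-out is fluorescence polarization (mP) after 45 min at room temperature, with IC50 fitted by nonlinear regression against log compound concentration. Mixture: 25 nM STAT3 (G127-I722), 2 nM 5-FAM-GpYLPQTV-NH2 phosphopeptide, 10 mM HEPES pH 7.4 buffer, 1% DMSO.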

SMILES | pIC50 [1] | pIC50 [2]
Cc1c(F)cncc1C1CN(C(=O)[C@@H]2CC[C@@H]3CCC[C@H](NC(=O)c4cc5cc(CP(=O)(O)O)ccc5s4)C(=O)N32)C1 [Compound 504, ((2-(((3S,6S,9aS)-3-(3-(5-fluoro-4-methylpyridin-3-yl)azetidine-1-carbonyl)-5-oxooctahydro-1H-pyrrolo[1,2-a]azepin-6-yl)carbamoyl)benzo[b]thiophen-5-yl)methyl)phosphonic acid] | 4.52 to 5.52 | 5.00 to 6.00
Cc1ccnc(F)c1C1CN(C(=O)[C@@H]2CC[C@@H]3CCC[C@H](NC(=O)c4cc5cc(CP(=O)(O)O)ccc5s4)C(=O)N32)C1 [Compound 505, ((2-(((3S,6S,9aS)-3-(3-(2-fluoro-4-methylpyridin-3-yl)azetidine-1-carbonyl)-5-oxooctahydro-1H-pyrrolo[1,2-a]azepin-6-yl)carbamoyl)benzo[b]thiophen-5-yl)methyl)phosphonic acid] | 4.52 to 5.52 | 5.00 to 6.00
COc1cncc(C2CN(C(=O)[C@@H]3CC[C@@H]4CCC[C@H](NC(=O)c5cc6cc(CP(=O)(O)O)ccc6s5)C(=O)N43)C2)c1C [Compound 506, ((2-(((3S,6S,9aS)-3-(3-(5-methoxy-4-methylpyridin-3-yl)azetidine-1-carbonyl)-5-oxooctahydro-1H-pyrrolo[1,2-a]azepin-6-yl)carbamoyl)benzo[b]thiophen-5-yl)methyl)phosphonic acid] | 4.52 to 5.52 | 5.00 to 6.00
Cc1cc(N(C)C)ncc1C1CN(C(=O)[C@@H]2CC[C@@H]3CCC[C@H](NC(=O)c4cc5cc(CP(=O)(O)O)ccc5s4)C(=O)N32)C1 [Compound 507, ((2-(((3S,6S,9aS)-3-(3-(6-(dimethylamino)-4-methylpyridin-3-yl)azetidine-1-carbonyl)-5-oxooctahydro-1H-pyrrolo[1,2-a]azepin-6-yl)carbamoyl)benzo[b]thiophen-5-yl)methyl)phosphonic acid] | 4.52 to 5.52 | 5.00 to 6.00
O=C(N[C@H]1CCC[C@H]2CC[C@@H](C(=O)N3CCC(c4cccnc4)C3)N2C1=O)c1cc2cc(CP(=O)(O)O)ccc2s1 (stereo partly drawn) [Compound 508, ((2-(((3S,6S,9aS)-5-oxo-3-(3-(pyridin-3-yl)pyrrolidine-1-carbonyl)octahydro-1H-pyrrolo[1,2-a]azepin-6-yl)carbamoyl)benzo[b]thiophen-5-yl)methyl)phosphonic acid] | 4.52 to 5.52 | 5.00 to 6.00
O=C(N[C@H]1CCCC[C@H]2CC[C@@H](C(=O)N3CCC(c4cccnc4)C3)N2C1=O)c1cc2cc(CP(=O)(O)O)ccc2s1 (stereo partly drawn) [Compound 509, ((2-(((3S,6S,10aS)-5-oxo-3-(3-(pyridin-3-yl)pyrrolidine-1-carbonyl)decahydropyrrolo[1,2-a]azocin-6-yl)carbamoyl)benzo[b]thiophen-5-yl)methyl)phosphonic acid] | 4.52 to 5.52 | 5.00 to 6.00
Cc1c(C#N)cncc1C1CN(C(=O)[C@@H]2CC[C@@H]3CCC[C@H](NC(=O)c4cc5cc(CP(=O)(O)O)ccc5s4)C(=O)N32)C1 [Compound 510, ((2-(((3S,6S,9aS)-3-(3-(5-cyano-4-methylpyridin-3-yl)azetidine-1-carbonyl)-5-oxooctahydro-1H-pyrrolo[1,2-a]azepin-6-yl)carbamoyl)benzo[b]thiophen-5-yl)methyl)phosphonic acid] | 4.52 to 5.52 | 5.00 to 6.00
COc1cc(C)c(C2CN(C(=O)[C@@H]3CC[C@@H]4CCC[C@H](NC(=O)c5cc6cc(CP(=O)(O)O)ccc6s5)C(=O)N43)C2)cn1 [Compound 511, ((2-(((3S,6S,9aS)-3-(3-(6-methoxy-4-methylpyridin-3-yl)azetidine-1-carbonyl)-5-oxooctahydro-1H-pyrrolo[1,2-a]azepin-6-yl)carbamoyl)benzo[b]thiophen-5-yl)methyl)phosphonic acid] | 4.52 to 5.52 | 5.00 to 6.00
CN(C)c1ccncc1C1CN(C(=O)[C@@H]2CC[C@@H]3CCC[C@H](NC(=O)c4cc5cc(CP(=O)(O)O)ccc5s4)C(=O)N32)C1 [Compound 512, ((2-(((3S,6S,9aS)-3-(3-(4-(dimethylamino)pyridin-3-yl)azetidine-1-carbonyl)-5-oxooctahydro-1H-pyrrolo[1,2-a]azepin-6-yl)carbamoyl)benzo[b]thiophen-5-yl)methyl)phosphonic acid] | 4.52 to 5.52 | > 7.00
O=C(N[C@H]1CCCC[C@H]2CC[C@@H](C(=O)N3CCC(O)(c4cc[nH]c(=O)c4)C3)N2C1=O)c1cc2cc(C(F)(F)P(=O)(O)O)ccc2s1 (stereo partly drawn) [Compound 513, (difluoro(2-(((3S,6S,10aS)-3-(3-hydroxy-3-(2-oxo-1,2-dihydropyridin-4-yl)pyrrolidine-1-carbonyl)-5-oxodecahydropyrrolo[1,2-a]azocin-6-yl)carbamoyl)benzo[b]thiophen-5-yl)methyl)phosphonic acid] | 5.52 to 6.52 | 6.00 to 7.00
O=C(N[C@H]1CCC[C@H]2CC[C@@H](C(=O)N3CC(c4cnccc4F)C3)N2C1=O)c1cc2cc(CP(=O)(O)O)ccc2s1 [Compound 514, ((2-(((3S,6S,9aS)-3-(3-(4-fluoropyridin-3-yl)azetidine-1-carbonyl)-5-oxooctahydro-1H-pyrrolo[1,2-a]azepin-6-yl)carbamoyl)benzo[b]thiophen-5-yl)methyl)phosphonic acid] | 4.52 to 5.52 | > 7.00
N#Cc1nccc(C2CN(C(=O)[C@@H]3CC[C@@H]4CCC[C@H](NC(=O)c5cc6cc(CP(=O)(O)O)ccc6s5)C(=O)N43)C2)n1 [Compound 515, ((2-(((3S,6S,9aS)-3-(3-(2-cyanopyrimidin-4-yl)azetidine-1-carbonyl)-5-oxooctahydro-1H-pyrrolo[1,2-a]azepin-6-yl)carbamoyl)benzo[b]thiophen-5-yl)methyl)phosphonic acid] | 4.52 to 5.52 | 5.00 to 6.00
O=C(N[C@H]1CCCC[C@H]2CC[C@@H](C(=O)N3CC(c4cnccc4-c4ccccc4)C3)N2C1=O)c1cc2cc(C(F)(F)P(=O)(O)O)ccc2s1 [Compound 516, (difluoro(2-(((3S,6S,10aS)-5-oxo-3-(3-(4-phenylpyridin-3-yl)azetidine-1-carbonyl)decahydropyrrolo[1,2-a]azocin-6-yl)carbamoyl)benzo[b]thiophen-5-yl)methyl)phosphonic acid] | 5.52 to 6.52 | > 7.00
O=C(N[C@H]1CCC[C@H]2CC[C@@H](C(=O)N3CC(c4cnccc4C4CC4)C3)N2C1=O)c1cc2cc(CP(=O)(O)O)ccc2s1 [Compound 517, ((2-(((3S,6S,9aS)-3-(3-(4-cyclopropylpyridin-3-yl)azetidine-1-carbonyl)-5-oxooctahydro-1H-pyrrolo[1,2-a]azepin-6-yl)carbamoyl)benzo[b]thiophen-5-yl)methyl)phosphonic acid] | 4.52 to 5.52 | 6.00 to 7.00
O=C(N[C@H]1CCCC[C@H]2CC[C@@H](C(=O)N3CC(c4cncc(-c5ccccc5)c4)C3)N2C1=O)c1cc2cc(C(F)(F)P(=O)(O)O)ccc2s1 [Compound 518, (difluoro(2-(((3S,6S,10aS)-5-oxo-3-(3-(5-phenylpyridin-3-yl)azetidine-1-carbonyl)decahydropyrrolo[1,2-a]azocin-6-yl)carbamoyl)benzo[b]thiophen-5-yl)methyl)phosphonic acid] | 4.52 to 5.52 | 6.00 to 7.00
O=C(N[C@H]1CCC[C@H]2CC[C@@H](C(=O)N3CC(c4cnccc4Cl)C3)N2C1=O)c1cc2cc(CP(=O)(O)O)ccc2s1 [Compound 519, ((2-(((3S,6S,9aS)-3-(3-(4-chloropyridin-3-yl)azetidine-1-carbonyl)-5-oxooctahydro-1H-pyrrolo[1,2-a]azepin-6-yl)carbamoyl)benzo[b]thiophen-5-yl)methyl)phosphonic acid] | 4.52 to 5.52 | 5.00 to 6.00
N#Cc1ccncc1C1CN(C(=O)[C@@H]2CC[C@@H]3CCC[C@H](NC(=O)c4cc5cc(CP(=O)(O)O)ccc5s4)C(=O)N32)C1 [Compound 520, ((2-(((3S,6S,9aS)-3-(3-(4-cyanopyridin-3-yl)azetidine-1-carbonyl)-5-oxooctahydro-1H-pyrrolo[1,2-a]azepin-6-yl)carbamoyl)benzo[b]thiophen-5-yl)methyl)phosphonic acid] | 4.52 to 5.52 | 5.00 to 6.00
O=C(N[C@H]1CCCC[C@H]2CC[C@@H](C(=O)NCc3cnc4[nH]cnc4c3)N2C1=O)c1cc2cc(C(F)P(=O)(O)O)ccc2s1 (stereo partly drawn) [Compound 521, ((2-(((3S,6S,10aS)-3-(((3H-imidazo[4,5-b]pyridin-6-yl)methyl)carbamoyl)-5-oxodecahydropyrrolo[1,2-a]azocin-6-yl)carbamoyl)benzo[b]thiophen-5-yl)fluoromethyl)phosphonic acid] | 4.52 to 5.52 | > 7.00
